The numbers were not newly measured in patent US20170303537A1, “COMPOSITIONS OF A QUATERNARY AMMONIUM COMPOUND WITH A MONOCARBOXYLIC FATTY ACID” (OMS INVESTMENTS, INC., priority 2016, published 2017), which cites them from elsewhere.

Molecules are shown by their SMILES.

`CCCCCCCCC(=O)O` [pelargonic acid]: the pKa result was “about 5”.
